Data set [1] concerns primary rat in vitro BBB model (primary rat endothelial cells co-cultured with primary rat glial cells). Conditions: for permeability coefficient (Pe) through in vitro BBB: pH 7.4.
Experimental: The permeability of peptides was assessed using a primary rat in vitro BBB model. […] Transendothelial electrical resistance (TEER) measurements were used to measure the resistance of tight junctions in our BBB model. For our experiments, we used only inserts with the TEER value ≥320 ± 20 Ώ cm^−2 that corresponded to an intact in vitro BBB model. Alternatively, the integrity of the in vitro rat BBB model was assessed by measuring the permeability of the paracellular compound Lucifer Yellow (LY). Lucifer Yellow was added to the well with the peptides.
To test the permeability of selected peptides across in vitro BBB model, peptide transport to the abluminal compartment was quantified by ultra-high-performance liquid chromatography/mass spectrometry (UHPLC–MS/MS) method.
As a negative control, we performed the permeability experiments with N–C reversed sequence peptides: [sequence] and [sequence].
To test the effect of temperature on the transport of peptides across BBB, endothelial cells were incubated with peptides at 4°C to reduce cell metabolism which slows down endocytosis.
Briefly, 4 Sprague–Dawley rats (200–250 g, 6 months old) were euthanized, and the whole brains were removed. Under sterile conditions, the brainstem and cerebellum were dissected, and the midbrain, white matter, and choroid plexus were removed. The remaining cortical tissue was cleaned from meninges on dry Whatman paper. The tissue was homogenized on ice in DMEM-F12 (PAA laboratories GmbH, Germany). The brain homogenate was centrifuged at 800× g for 10 min at 4 °C. The supernatant was aspirated, and the pellet was resuspended in pre-warmed digestion mix containing collagenase/dispase (Roche Diagnostics, Indianapolis, IN, USA) and DNase I (Sigma–Aldrich, St. Louis, MO, USA). The tissue was incubated with a prepared digestion mix at 37 °C for 30 min with gentle shaking. Digested tissue was centrifuged at 800× g for 10 min at 4 °C, and the pellet was resuspended in 20% bovine serum albumin (BSA, Sigma–Aldrich, St. Louis, MO). The tissue was centrifuged at 1500× g for 15 min at 4 °C to obtain pellet containing microvessels with a fraction of myelin and BSA on the top, which was centrifuged again. The microvessels were pooled and resuspended in pre-warmed digestion mix and digested for 15 min at 37 °C. The microvessels pellet was again centrifuged at 800× g for 10 min at 4 °C and washed with culture medium containing the serum. The microvessels were cultured in DMEM-F12 medium (PAA Laboratories GmbH, Germany) containing 15% plasma-derived serum (PDS) (First Link, UK), 2 mM L-glutamine (GE Healthcare, UK), BME vitamins (Sigma–Aldrich, St. Louis, MO), heparin (Sigma–Aldrich, St. Louis, MO) and 3 µM puromycine (Sigma–Aldrich, St. Louis, MO). After 7 days, cells were seeded on the upper chamber (apical compartment) of Transwell insert with a 0.4 µm pore size (Becton Dickinson, New Jersey, USA) pre-coated with 10 µg/cm^2 collagen type IV (Sigma–Aldrich, St. Louis, MO) and 5 µg/cm^2 fibronectin (Sigma–Aldrich, St. Louis, MO).
Data set [2] concerns primary rat in vitro BBB model. Description: Permeability of endothelium to Lucifer Yellow (BBB integrity). As to conditions: 10 µM Lucifer Yellow apical, added with the peptides; Ringer-HEPES pH 7.4; 37 °C; 5-60 min; fluorescence 428/536 nm. The format is in vitro ADME. The method, then:
All incubations were performed at 37 °C.

A further data set can be described thus: in vitro. As to conditions: Sprague-Dawley, rat, pH 7.4.

Ends that are not written are not given here.

These results are taken from paper PMC7070575, “Novel Blood–Brain Barrier Shuttle Peptides Discovered through the Phage Display Method” (Molecules, 2020).

On to HLYLNTASTHLG, for which the “permeability coefficient (Pe) through in vitro BBB” value in data set [1] came out at 0.75 ×10⁻⁶ cm/s.
For Lucifer Yellow, the “endothelial permeability coefficient (Pe) of LY” value in data set [2] is “around 11 × 10^−6 cm/s”.
A word on the Papp A→B: it is the apparent permeability from the apical to the basolateral side of a cell layer. A low value points to slow passage. On to VAARTGEIYVPW, for which, in data set [1], the “permeability at 4 °C (37 °C: 100%)” value is listed as 69% and the “permeability reduced at 4 °C” value is 30.5%. The same substance gave a Papp A→B in the data set “in vitro” of 1.5 ×10⁻⁶ cm/s.
Consider GLHTSATNLYLH, for which, in data set [1], the “permeability at 4 °C (37 °C: 100%)” value is recorded as 79%, the “permeability reduced at 4 °C” value was determined as 20.5% and the “permeability coefficient (Pe) through in vitro BBB” value stood at 0.33 ×10⁻⁶ cm/s.
As to WPVYIEGTRAAV, the apical-to-basolateral permeability (Papp A→B) in the data set “in vitro” was 0.5 ×10⁻⁶ cm/s.
